Read-outs that look alike come from different tables or passages of the source. Marks after values point to notes of the source that are not given here.
Assays:
Crl:CD(SD) rats = experiment: Subchronic 90-day oral RDT study with reproductive toxicity screening; format: in vivo, rat; details: for erythroid hyperplasia in the bone marrow, incidence: 90 days; for body weight at autopsy reduced: 90-day exposure; for dose level from which hematological parameters were significantly affected: 90-day oral
[1] = Plasma toxicokinetic study; format: in vivo, rat; details: for C max / K el / t 1/2 / Bioavailability (absolute): 10 mg test item/kg PO (2.48 mg Co/kg); for Bioavailability (absolute): vs CoCl2 IV
[2] = system: children with sickle cell anemia; details: 1.4–1.8 mg Co/kg/day, ref Gross et al., 1955, Kriss et al.; cited from earlier work
rats [3] = details: cited from earlier work
[4] = Target organ study: tissue distribution of cobalt after 90-day oral exposure; format: in vivo, rat; details: 90-day exposure to 7.44 mg Co/kg bw/day
[5] = 0.08–0.19 mg Co/kg bw/day, 3-month, ref Tvermoes et al., 2014, cited from earlier work
[6] = Bioelution in simulated gastric fluid
female mice = details: 15-day exposure, ref Finley et al. (2012), Shrivastava et al., 1996; cited from earlier work
[7] = Bioelution in simulated intestinal fluid; details: simulated intestinal fluid pH 7.4, 2 h
[8] = oral administration; ref Kirchgessner et al., 1994; cited from earlier work
rats [9] = details: oral, ref Speijers et al. (1982), cited from earlier work
[10] = Mass balance study: urinary and fecal Co excretion after single oral gavage; format: in vivo, rat; details: single oral bolus 10 mg/kg bw (2.48 mg Co/kg bw), 72 h
[11] = cobalt dichloride hexahydrate vs tricobalt tetraoxide
[12] = females, 0.74 mg Co/kg bw/day, end of 90-day oral exposure, experimental group
[13] = females, 2.48 mg Co/kg bw/day, end of 90-day oral exposure, experimental group
[14] = females, 7.44 mg Co/kg bw/day, end of 90-day oral exposure, experimental group
[15] = females, 7.44 mg Co/kg bw/day, recovery group, end of 28-day recovery period
[16] = females, 7.44 mg Co/kg bw/day, recovery group, end of 90-day oral exposure
[17] = males, 0.74 mg Co/kg bw/day, end of 90-day oral exposure, experimental group
[18] = males, 2.48 mg Co/kg bw/day, end of 90-day oral exposure, experimental group
[19] = males, 7.44 mg Co/kg bw/day, end of 90-day oral exposure, experimental group
[20] = males, 7.44 mg Co/kg bw/day, recovery group, end of 28-day recovery period
[21] = males, 7.44 mg Co/kg bw/day, recovery group, end of 90-day oral exposure
[22] = listed as Co Dichloride Hexahydrate

SMILES: O.O.O.O.O.O.[Cl-].[Cl-].[Co+2] [CoCl2, Cobalt dichloride hexahydrate]
- erythroid hyperplasia in the bone marrow, incidence (Crl:CD(SD) rats; 2.48 mg Co/kg bw/day, females): 7/10
- erythroid hyperplasia in the bone marrow, incidence (Crl:CD(SD) rats; 2.48 mg Co/kg bw/day, males): 4/10
- erythroid hyperplasia in the bone marrow, incidence (Crl:CD(SD) rats; 7.44 mg Co/kg bw/day, both sexes): 7/10
- premature deaths (Crl:CD(SD) rats; 90-day oral gavage, all doses): None of the animals treated with any dose of CoCl2 died prematurely
- LOAEL (systemic) (Crl:CD(SD) rats; 90-day oral gavage, rats): 2.5 mg Co/kg bw/day
- NOAEL (reproductive) (Crl:CD(SD) rats; 90-day oral gavage, rats): > 7.5 mg Co/kg bw/day
- difference in RDT lowest observed adverse effect level (factor) (Crl:CD(SD) rats; [11]): 310
- HGB, %Diff vs control (Crl:CD(SD) rats; [12]): +0.9%
- HGB, mean (Crl:CD(SD) rats; [12]): 9.62 mmol/L
- RBC, %Diff vs control (Crl:CD(SD) rats; [12]): +0.6%
- RBC, mean (Crl:CD(SD) rats; [12]): 8.38 ×10E6/µl
- Reti, %Diff vs control (Crl:CD(SD) rats; [12]): −18.9%
- Reti, mean (Crl:CD(SD) rats; [12]): 12 %0 of RBC
- HGB, %Diff vs control (Crl:CD(SD) rats; [13]): +0.3%
- HGB, mean (Crl:CD(SD) rats; [13]): 9.56 mmol/L
- RBC, %Diff vs control (Crl:CD(SD) rats; [13]): −2.6%
- RBC, mean (Crl:CD(SD) rats; [13]): 8.11 ×10E6/µl
- Reti, %Diff vs control (Crl:CD(SD) rats; [13]): +33.1%
- Reti, mean (Crl:CD(SD) rats; [13]): 19.7 %0 of RBC
- body weight at autopsy reduced (Crl:CD(SD) rats; females, 7.44 mg Co/kg bw/day): 9%
- HGB, %Diff vs control (Crl:CD(SD) rats; [14]): +13.4%
- HGB, mean (Crl:CD(SD) rats; [14]): 10.81 mmol/L
- RBC, %Diff vs control (Crl:CD(SD) rats; [14]): +9.8%
- RBC, mean (Crl:CD(SD) rats; [14]): 9.15 ×10E6/µl
- Reti, %Diff vs control (Crl:CD(SD) rats; [14]): +4.1%
- Reti, mean (Crl:CD(SD) rats; [14]): 15.4 %0 of RBC
- HCT, mean (Crl:CD(SD) rats; [15]): • 45.02 • .841%
- HGB, mean (Crl:CD(SD) rats; [15]): • 9.56 • .936 mmol/l
- RBC, mean (Crl:CD(SD) rats; [15]): • 8.01 • .948 ×10E6/µl
- Reti, mean (Crl:CD(SD) rats; [15]): • 15 • .232 %0 of RBC
- HCT, mean (Crl:CD(SD) rats; [16]): • 52.3 ^** • .0025%
- HGB, mean (Crl:CD(SD) rats; [16]): • 11.1 ^** • .0017 mmol/l
- RBC, mean (Crl:CD(SD) rats; [16]): • 9.648 ^* • .030 ×10E6/µl
- Reti, mean (Crl:CD(SD) rats; [16]): • 15.6 • .933 %0 of RBC
- body weight reduced at the end of the 4-week recovery period (Crl:CD(SD) rats; females, 7.44 mg Co/kg bw/day, test day 118): 13%
- dose level from which hematological parameters were significantly affected (Crl:CD(SD) rats; females): 7.44 mg/kg bw/day
- changes in hematological parameters compared with control (Crl:CD(SD) rats; male rats, 90-day exposure at 7.44 mg Co/kg bw/day): up to 30%
- HCT, %Diff vs control (Crl:CD(SD) rats; [17]): +1.2%
- HCT, mean (Crl:CD(SD) rats; [17]): 50.51%
- HGB, %Diff vs control (Crl:CD(SD) rats; [17]): +1.4%
- HGB, mean (Crl:CD(SD) rats; [17]): 10.50 mmol/L
- PLT, %Diff vs control (Crl:CD(SD) rats; [17]): −13.5%
- PLT, mean (Crl:CD(SD) rats; [17]): 793.6 ×10E3/µl
- RBC, %Diff vs control (Crl:CD(SD) rats; [17]): −1.4%
- RBC, mean (Crl:CD(SD) rats; [17]): 9.33 ×10E6/µl
- Reti, %Diff vs control (Crl:CD(SD) rats; [17]): +7.8%
- Reti, mean (Crl:CD(SD) rats; [17]): 15.2 %0 of RBC
- HCT, %Diff vs control (Crl:CD(SD) rats; [18]): +10.3%
- HCT, mean (Crl:CD(SD) rats; [18]): 55.07%
- HGB, %Diff vs control (Crl:CD(SD) rats; [18]): +10.7%
- HGB, mean (Crl:CD(SD) rats; [18]): 11.46 mmol/L
- PLT, %Diff vs control (Crl:CD(SD) rats; [18]): −13.9%
- PLT, mean (Crl:CD(SD) rats; [18]): 789.2 ×10E3/µl
- RBC, %Diff vs control (Crl:CD(SD) rats; [18]): +9.2%
- RBC, mean (Crl:CD(SD) rats; [18]): 10.33 ×10E6/µl
- Reti, %Diff vs control (Crl:CD(SD) rats; [18]): −23.4%
- Reti, mean (Crl:CD(SD) rats; [18]): 10.8 %0 of RBC
- body weight at autopsy reduced (Crl:CD(SD) rats; males, 7.44 mg Co/kg bw/day): 11%
- HCT, %Diff vs control (Crl:CD(SD) rats; [19]): +24.2%
- HCT, mean (Crl:CD(SD) rats; [19]): 61.98%
- HGB, %Diff vs control (Crl:CD(SD) rats; [19]): +25.6%
- HGB, mean (Crl:CD(SD) rats; [19]): 13.00 mmol/L
- PLT, %Diff vs control (Crl:CD(SD) rats; [19]): −30.5%
- PLT, mean (Crl:CD(SD) rats; [19]): 637.1 ×10E3/µl
- RBC, %Diff vs control (Crl:CD(SD) rats; [19]): +18.9%
- RBC, mean (Crl:CD(SD) rats; [19]): 11.25 ×10E6/µl
- Reti, %Diff vs control (Crl:CD(SD) rats; [19]): −25.5%
- Reti, mean (Crl:CD(SD) rats; [19]): 10.5 %0 of RBC
- HCT, mean (Crl:CD(SD) rats; [20]): • 49.58 • .334%
- HGB, mean (Crl:CD(SD) rats; [20]): • 10.64 • .087 mmol/l
- PLT, mean (Crl:CD(SD) rats; [20]): • 917.6 • .551 ×10E3/µl
- RBC, mean (Crl:CD(SD) rats; [20]): • 9.086 • .373 ×10E6/µl
- Reti, mean (Crl:CD(SD) rats; [20]): • 15.1 • .0544 %0 of RBC
- HCT, mean (Crl:CD(SD) rats; [21]): • 58.68** • .002%
- HGB, mean (Crl:CD(SD) rats; [21]): • 12.74** • .0015 mmol/l
- PLT, mean (Crl:CD(SD) rats; [21]): • 727.2 • .223 ×10E3/µl
- RBC, mean (Crl:CD(SD) rats; [21]): • 10.89** • .0022 ×10E6/µl
- Reti, mean (Crl:CD(SD) rats; [21]): • 15.6 • .400 %0 of RBC
- dose level from which hematological parameters were significantly affected (Crl:CD(SD) rats; males): 2.48 mg Co/kg bw/day
- C max ([1]; females): 2.61 ng/mL
- K el ([1]; females): 0.0508 h⁻¹
- t 1/2 ([1]; females): 13.7 h
- Bioavailability (absolute) ([1]; females): ~12%
- Bioavailability (absolute) ([1]; females, listed as CoCl2.6H2O): 11.7 (absolute) %
- C max ([1]; males): 2.51 ng/mL
- K el ([1]; males): 0.0489 h⁻¹
- t 1/2 ([1]; males): 14.2 h
- Bioavailability (absolute) ([1]; males): approximately 7%
- Bioavailability (absolute) ([1]; males, listed as CoCl2.6H2O): 6.81 (absolute) %
- Bioavailability calculated from AUC as % of CoCl2 IV AUC, average of m + f: absolute bioavailability ([1]; oral, rats, average of males and females): Absolute bioavailability 9.3%
- oral bioavailability ([1]; single oral bolus, rats, males and females not distinguished): ≤ 12%
- thyroid effects [2]: decrease in iodine uptake and the development of goiters
- dose at which adverse cardiac effects were observed (rats [3]; male SD rats, 3-month exposure, ref Domingo et al., 1984): 32 mg Co/kg bw/day
- daily dose at which hematological effects were reported (rats [3]; rats, 7 days, ref Shrivastava et al., 2010): 12.5 mg Co/kg/day
- elevation of tissue Co concentration vs control, most tissues and organs [4]: around 20 fold
- absorption of Co ([5]; men): 20%
- absorption of Co ([5]; women): 45%
- difference in in vitro bioaccessibility (factor) [6, 11]: 440
- Bioelution of Co in gastric fluid (% release), 2 h ([6]; simulated gastric fluid pH 1.5, 2 h, 37°C): 98.5 % release
- dose at which histopathological changes in the thyroid were reported (female mice): approximately 50 mg Co/kg bw/day
- Bioelution of Co in intestinal fluid (% release) [7]: 79 (2 h) % release
- Bioelution of Co in intestinal fluid / cobalt release (µg Co/g sample) [7, 22]: 198 700 (2 h) µg Co/g sample
- absorbed Co excreted in the feces via the bile [8]: around 1%
- Acute LD50 (mg Co/kg bw) (rats [9]): 190 mg Co/kg bw
- Acute LD50 (mg substance/kg bw) (rats [9]): below 1000 mg substance/kg bw
- Acute LD50 (mg substance/kg bw) (rats [9]; [22]): 766 [Speijers et al. (1982)] mg substance/kg bw
- Fecal Excretion (%) ([10]; females): 98.5 % of Co applied
- Sum of Urinary and Fecal Excretion (%) ([10]; females): 110.7 % of Co applied
- Urinary Excretion (%) ([10]; females): 12.2 % of Co applied
- Fecal Excretion (%) ([10]; males): 82.4 % of Co applied
- Sum of Urinary and Fecal Excretion (%) ([10]; males): 99.5 % of Co applied
- Urinary Excretion (%) ([10]; males): 17.1 % of Co applied

— article PMC7098370 (Toxicological Sciences, 2020)
